From patent publication US8372582B2, “Methods of modulating metabolic memory” (Joslin Diabetes Center, Inc., priority 2006, dated 2013) come the findings set out here.

“Also recorded” adds a separate entry of the source.

The test system of one experiment is bovine retinal pericytes. Nature of the experiment: HG-induced apoptosis (DNA fragmentation) in cultured retinal pericytes. Particulars: for reversal of apoptosis / effects of HG once established: agent added during LG conditions after HG exposure; for effect on HG-induced apoptosis: pericytes in high glucose (20 mM), agent present with HG. It is filed as cell-based. On the procedure:
Cell apoptosis will be evaluated by measurement of DNA fragmentation using cell death detection kit (ROCHE diagnostics). Approximately 15000 cells are seeded in 96-well plates in DMEM with 20% FBS for 18 hours. BRP are starved for 24 hours and then stimulated with either 5.5 or 20 mM of d-glucose for an addition 72 hours. DNA fragmentation is measured in accordance to manufacture's protocol. Increases in caspase 3+9 cleared will also be measured using immunoblot analysis. Measurement of NF-κB activity in cultured cells. Activity of NF-κB will be assessed by a microwell colorimetric assay using the TransAM NFκB transcription factor assay kit (Active Motif, Carlsbad, Calif.) following manufacturer's instruction (Renard et al., Nucleic Acids Res 29, E21 (2001)).
Various potential mechanisms for the metabolic memory process in retinal pericytes were explored in vitro. Cells were culture in high glucose (HG, 20 mM glucose) for about 72 hours, and then for another 24 hours in low glucose (LG, 5.6 mM glucose). This mimics a period of hyperglycemia followed by normoglycemia, a common pattern in diabetics, who often have a period of poorly controlled glycemia before finding a regime that provides better control, thus providing a cultured cell model of metabolic memory.
(§1) The role of p38 MAPK was studied further using SB203580, a specific inhibitor for p38 MAPK a and […] and adenoviral vector of dominant negative p38 MAPKα and β isoforms (Wang et al., J Biol Chem 273, 2161-8 (1998)), either at the same time as starting HG condition or after 3 days of HG when cells are returning to LG condition. In addition, the effects of the antioxidant N-acetylcysteine (NAC) were also evaluated. Activation of p38 MAPK β and δ was evaluated by immunoblotting with anti-phospho p38 MAPK α and δ antibodies.

A further experiment concerns p38 MAPK. Description: HG-induced p38 MAPK activation in pericytes (immunoblot). Conditions: high glucose. It is filed as cell-based, bovine.
Description: In addition to PKC activation, the effect of HG on p38 MAPK activation was also characterized, since PKC δ activation induced by HG can activate p38 MAPK in aortic smooth muscle and renal mesangial cells. […] HG was able to increase the phosphorylation of p38 MAPK by 2-fold in pericytes after three days of exposure (FIG. 4) in parallel with PKC δ activation and increases in apoptosis; no effects on JNK were observed.
as §1

A further experiment deals with SHP-1. Nature of the experiment: HG-induced SHP-1 expression in pericytes (Western blot). Particulars: high glucose. It is filed as cell-based. Here is the method: (§2) Protein tyrosine phosphatases (PTPs) play a key role in the regulation of receptor tyrosine kinases such as the PDGF-β receptor. Thus, experiments were performed to determine the pathway by which glycemic memory prevented tyrosine phosphorylation of the PDGF-Beta receptor. Cultured pericytes were exposed to either low glucose conditions (˜5.5 mM glucose, LG), high glucose conditions (˜20 mM glucose, HG), or high glucose followed by low glucose (˜20 mM, ±5.5 mM glucose, HG+LG) for 72 hours per exposure. Pericytes were lysed, and lysates were run on an SDS/PAGE gel, then transferred to nitrocellulose for immunoblotting, according to already published procedures. Commercially available antibodies for SHP-1 and another protein tyrosine phosphatase, PTP-1B were used to probe the blot, according to manufacturer's instructions.

The subject of the next experiment is PDGF-Beta receptor. Nature of the experiment: PDGF-BB-induced tyrosine phosphorylation of PDGF-β receptor in HG-treated pericytes (Western blot). It is filed as cell-based. Particulars: high glucose. Here is the method:
as §2
Cultured pericytes were treated with high glucose (˜20 mM glucose) and subsequently prepared for Western blot analyses as described in Example 2. An antibody directed against phosphorylated PDGF-Beta receptor was used to assess the effects of the HG treatment on receptor phosphorylation levels.
A general note: In western blotting, separated proteins are transferred to a membrane and probed.

On to `CC(=O)N[C@@H](CS)C(=O)O` [NAC, N-acetylcysteine], for which, in the experiment with bovine retinal pericytes, the “reversal of apoptosis / effects of HG once established” value was “not totally effective” and the “effect on HG-induced apoptosis” value is on record as “partly able to prevent”.

Consider `CN(C)C[C@@H]1CCn2cc(c3ccccc32)C2=C(C(=O)NC2=O)c2cn(c3ccccc23)CCO1` [RBX], for which, in the experiment with p38 MAPK, the “prevention of HG induced p38 MAPK activation” value was “ineffective”. Besides, the “effect on HG-induced apoptosis” value in the experiment on bovine retinal pericytes is given as “ineffective”.

In the case of `C[S+]([O-])c1ccc(-c2nc(-c3ccncc3)c(-c3ccc(F)cc3)[nH]2)cc1` (stereo not shown) [SB203580], in the experiment with SHP-1, the “effect on HG-induced expression of SHP-1” value is given as “prevented”. Also, the “effect on HG-induced abrogation of PDGF-BB actions” value in the experiment on PDGF-Beta receptor is reported as “abrogated PDGF-BB actions; also recorded: prevented”. For the same compound, in the experiment on PDGF-Beta receptor (FIG. 16), the “effect on HG-prevented tyrosine phosphorylation of PDGFR-β induced by PDGF” value is given as “reversed”. In the experiment on bovine retinal pericytes, the “reversal of apoptosis / effects of HG once established” value is reported as “not totally effective” and the “effect on HG-induced apoptosis” value was “partly able to prevent; also recorded: prevented apoptosis”.

Take “dominant negative form of SHP-1: dominant negative form of SHP-1 (Dubois et al., Nat. Med. 2006); C453S ablates phosphatase activity”: the “effect on HG-induced apoptosis” value in the experiment with bovine retinal pericytes is on record as “reduces HG-induced apoptosis, even in the presence of PDGF”.
